Experimental data as given in patent publication US8999994B2, “Derivatives of propargylamine having neuroprotective capacity for the treatment of Alzheimer's and Parkinson's diseases” (Consejo Superior de Investigaciones Cientificas, priority 2010, dated 2015).
Where two headings read alike, the source gives them in different places.

How the values were obtained:
Type in all cases: biochemical
MAO-B = MAO-B (Rattus norvegicus (Rat), UniProt P19643); assay: Inhibition of monoamine oxidase B (Fowler and Tipton radiometric method, rat liver mitochondria)
MAO-A = MAO-A (Rattus norvegicus (Rat), UniProt P21396); assay: Inhibition of monoamine oxidase A (Fowler and Tipton radiometric method, rat liver mitochondria)
AChE (electric eel) = AChE (electric eel) (Electrophorus electricus (Electric eel) (Gymnotus electricus), UniProt O42275); conditions: acetylthiocholine iodide […], 10 min incubation, mean ± SEM, read-out: IC50 (μM) ChE EeAChE
[1] = rat liver mitochondria, [14C]-phenylethylamine 20 μM substrate, 30 min incubation, mean ± SEM
[2] = rat liver mitochondria, [14C]-5-HT 100 μM substrate, 30 min incubation, mean ± SEM, read-out: IC50 (μM) MAO MAO-A

MAO-A, sequence (P21396 whole entry): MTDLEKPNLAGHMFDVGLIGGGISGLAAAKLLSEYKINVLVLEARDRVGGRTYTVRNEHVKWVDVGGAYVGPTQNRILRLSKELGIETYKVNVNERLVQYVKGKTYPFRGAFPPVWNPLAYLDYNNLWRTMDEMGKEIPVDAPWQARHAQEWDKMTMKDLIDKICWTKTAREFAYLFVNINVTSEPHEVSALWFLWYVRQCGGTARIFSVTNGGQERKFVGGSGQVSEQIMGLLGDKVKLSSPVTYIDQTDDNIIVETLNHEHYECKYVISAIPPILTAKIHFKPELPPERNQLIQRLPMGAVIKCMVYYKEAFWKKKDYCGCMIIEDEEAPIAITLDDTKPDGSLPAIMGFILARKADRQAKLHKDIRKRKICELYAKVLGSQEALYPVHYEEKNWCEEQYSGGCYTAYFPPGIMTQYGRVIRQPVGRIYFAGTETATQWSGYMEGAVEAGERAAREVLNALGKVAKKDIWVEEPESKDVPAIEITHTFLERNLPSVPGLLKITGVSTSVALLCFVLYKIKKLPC
AChE (electric eel), sequence (O42275 whole entry, looked up): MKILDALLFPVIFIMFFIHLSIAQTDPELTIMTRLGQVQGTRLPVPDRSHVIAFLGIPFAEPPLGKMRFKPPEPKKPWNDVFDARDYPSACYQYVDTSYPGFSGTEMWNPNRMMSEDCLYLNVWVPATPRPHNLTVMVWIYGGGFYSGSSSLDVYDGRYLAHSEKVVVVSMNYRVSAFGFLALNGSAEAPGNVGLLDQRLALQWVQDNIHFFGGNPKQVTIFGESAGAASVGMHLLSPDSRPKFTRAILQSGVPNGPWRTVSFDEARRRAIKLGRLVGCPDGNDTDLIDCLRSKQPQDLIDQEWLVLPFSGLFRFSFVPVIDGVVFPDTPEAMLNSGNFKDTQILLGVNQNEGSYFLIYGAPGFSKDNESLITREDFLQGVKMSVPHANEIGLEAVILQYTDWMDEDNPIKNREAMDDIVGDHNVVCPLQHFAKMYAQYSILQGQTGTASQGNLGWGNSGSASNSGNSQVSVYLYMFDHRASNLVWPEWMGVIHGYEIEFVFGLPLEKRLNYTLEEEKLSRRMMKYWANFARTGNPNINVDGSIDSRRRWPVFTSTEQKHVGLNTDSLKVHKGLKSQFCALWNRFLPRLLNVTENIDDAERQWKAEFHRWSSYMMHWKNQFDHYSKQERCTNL
MAO-B, sequence (P19643 whole entry): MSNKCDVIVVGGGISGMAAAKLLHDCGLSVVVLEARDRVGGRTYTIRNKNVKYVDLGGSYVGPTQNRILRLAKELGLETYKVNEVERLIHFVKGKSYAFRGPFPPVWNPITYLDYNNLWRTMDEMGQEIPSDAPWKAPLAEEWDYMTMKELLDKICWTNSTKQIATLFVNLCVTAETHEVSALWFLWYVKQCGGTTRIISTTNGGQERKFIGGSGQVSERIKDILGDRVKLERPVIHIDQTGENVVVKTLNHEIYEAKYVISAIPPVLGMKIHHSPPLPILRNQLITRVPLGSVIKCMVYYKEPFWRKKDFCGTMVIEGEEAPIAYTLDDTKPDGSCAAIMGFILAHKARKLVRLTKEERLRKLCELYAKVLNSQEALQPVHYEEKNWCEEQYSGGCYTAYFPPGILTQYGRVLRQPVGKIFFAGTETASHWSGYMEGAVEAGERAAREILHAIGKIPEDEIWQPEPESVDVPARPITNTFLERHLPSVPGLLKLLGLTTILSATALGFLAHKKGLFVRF

SMILES | IC50 (MAO-B; [1]) | IC50 (MAO-A; [2]) | IC50 (AChE (electric eel)) | IC50 (MAO-A; read-out: IC50 (μM) MAO MAO-A) | IC50 (MAO-A) | IC50 (MAO-B) | IC50 (μM) MAO MAO-B (MAO-B)
C#CCN(C)Cc1cc2cc(OCCN3CCC(Cc4ccccc4)CC3)ccc2n1C [Compound 1, N-{(5-[2-(4-benzylpiperidin-1-yl)ethoxy)-1-methyl-1H-indol-2-yl]methyl}-N-methylprop-2-yn-1-amine] | 1.46 ± 0.499 µM | 0.143 ± 0.0443 µM | > 100 µM |  |  |  | 
C#CCN(C)Cc1cc2cc(OCCCN3CCC(Cc4ccccc4)CC3)ccc2n1C [Compound 2, N-{(5-[3-(4-benzylpiperidin-1-yl)propoxy)-1-methyl-1H-indol-2-yl]methyl}-N-methylprop-2-yn-1-amine] | 11.3 ± 2.38 µM |  | 18.1 ± 0.4 µM | 0.0654 ± 0.0174 µM |  |  | 
C#CCN(C)Cc1cc2cc(OCCCN3CCN(Cc4ccccc4)CC3)ccc2n1C [Compound 3, N-{(5-[3-(4-benzylpiperazin-1-yl)propoxy)-1-methyl-1H-indol-2-yl]methyl}-N-methylprop-2-yn-1-amine] | 1.64 ± 0.707 µM |  | > 100 µM |  | 0.0305 ± 0.0135 µM |  | 
C#CCN(C)Cc1cc2cc(OCC3CCN(Cc4ccccc4)CC3)ccc2n1C [Compound 4, N-{(5-((1-benzylpiperidin-4-yl)methoxy)-1-methyl-1H-indol-2-yl)methyl}-N-methylprop-2-yn-1-amine] |  | 0.0822 ± 0.0032 µM | 0.31 ± 0.04 µM |  |  | 0.745 ± 0.0199 µM | 
C#CCN(C)Cc1cc2cc(OCCC3CCN(Cc4ccccc4)CC3)ccc2n1C [Compound 5, N-((5-(2-(1-benzylpiperidin-4-yl)ethoxy)-1-methyl-1H-indol-2-yl)methyl)-N-methylprop-2-yn-1-amine] |  | 0.0067 ± 0.0018 µM | 0.42 ± 0.04 µM |  |  | 0.13 ± 0.0414 µM | 
C#CCN(C)Cc1cc2cc(OCCCC3CCN(Cc4ccccc4)CC3)ccc2n1C [Compound 6, N-((5-[3-(1-benzylpiperidin-4-yl)propoxy)-1-methyl-1H-indol-2-yl)methyl)-N-methylprop-2-yn-1-amine] | 0.0431 ± 0.0079 µM | 0.0052 ± 0.0011 µM |  |  |  |  | 
C#CCN(C)Cc1cc2cc(OCCCCC3CCN(Cc4ccccc4)CC3)ccc2n1C [Compound 7, N-((5-[4-(1-benzylpiperidin-4-yl)butoxy)-1-methyl-1H-indol-2-yl)methyl)-N-methylprop-2-yn-1-amine] | 2.77 ± 0.116 µM | 0.0105 ± 0.0044 µM | 0.26 ± 0.07 µM |  |  |  | 
Nc1c2c(nc3ccccc13)CCCC2 [Tacrine, tacrine, reference compound] |  |  |  |  |  |  | 499.6 ± 12.8 µM
